# Test results reported in ChEMBL document CHEMBL1121749, “Beta-adrenergic blocking agents. 21. threo-1-(Aryloxy)-3-(alkylamino)butan-2-ols” (J Med Chem, 1981).
# Activity calls are given as the source filed them. The rule behind the calls is not given here.
# Target: Adrenergic receptor beta (Homo sapiens) (UniProt P08588+P07550+P13945)
# Assay: Beta adrenoceptor blocking potency by inhibition of 50% of the tachycardia produced by a submaximal dose of the isoproterenol (0.2ug/kg, intravenously).
# Format: functional
# Conditions: Felis catus
row,DOSE,SMILES
1,inactive,CC(NC(C)(C)C)C(O)COc1ccccc1/C=C/C#N (centres undefined)
2,inactive,CC(NC(C)(C)C)C(O)COc1ccc(CC(N)=O)cc1 (centres undefined)
3,inactive,CC(=O)Nc1ccc(OCC(O)C(C)N)cc1 (centres undefined)
4,inactive,CC(C)NC(C)C(O)COc1ccc(CC(N)=O)cc1 (centres undefined)
5,inactive,CCC(=O)Nc1cccc2c(OCC(O)C(C)NC(C)(C)C)cccc12 (centres undefined)
6,inactive,CC(NC(C)(C)C)C(O)COc1cccc2sccc12 (centres undefined)
7,inactive,CCNC(C)C(O)COc1ccc(CC(N)=O)cc1 (centres undefined)
8,inactive,CC(=O)Nc1ccc(OCC(O)C(C)NC(C)C)cc1 (centres undefined)
9,inactive,CCC(=O)Nc1ccc(OCC(O)C(C)NC(C)(C)C)c([N+](=O)[O-])c1 (centres undefined)
10,inactive,CC(NC(C)(C)C)C(O)COc1ccccc1C#N (centres undefined)
11,inactive,CCC(=O)Nc1cccc2c(OCC(O)C(C)NC(C)C)cccc12 (centres undefined)
12,inactive,Cc1ccc(OCC(O)C(C)NC(C)C)cc1 (centres undefined)
13,inactive,CC(C)NC(C)C(O)COc1ccc(Cl)c(Cl)c1 (centres undefined)
14,inactive,CC(NC(C)(C)C)C(O)COc1cccc2ccccc12 (centres undefined)
15,inactive,CC(=O)Nc1ccc(OCC(O)C(C)NC(C)(C)CO)cc1 (centres undefined)
16,inactive,CC(=O)Nc1ccc(OCC(O)C(C)NC(C)(C)C)cc1 (centres undefined)
17,inactive,COc1ccc(CCNC(C)C(O)COc2cccc3ccccc23)cc1OC (centres undefined)
18,inactive,COc1ccc(CCNC(C)C(O)COc2ccc(CC(N)=O)cc2)cc1OC (centres undefined)
19,inactive,CC(C)CNC(C)C(O)COc1cccc2ccccc12 (centres undefined)
20,inactive,CCNC(C)C(O)COc1ccc(NC(C)=O)cc1 (centres undefined)
21,inactive,CC(C)NC(C)C(O)COc1ccc2ccccc2c1 (centres undefined)
22,inactive,CCC(=O)Nc1ccc(OCC(O)C(C)NC(C)(C)C)cc1 (centres undefined)
23,inactive,CC(C)CNC(=O)c1ccc(OCC(O)C(C)NC(C)C)c(Cl)c1 (centres undefined)
24,inactive,C=CCc1cc(CC(N)=O)ccc1OCC(O)C(C)NC(C)(C)C (centres undefined)
25,inactive,Cc1csc2cccc(OCC(O)C(C)NC(C)(C)C)c12 (centres undefined)
26,inactive,CC(C)NC(C)C(O)COc1ccccc1-c1nc2ccccc2s1 (centres undefined)
27,inactive,CCOc1cc(CNC(=O)CC)ccc1OCC(O)C(C)NC(C)C (centres undefined)
28,inactive,CC(NC(C)(C)C)C(O)COc1ccc(CC(N)=O)cc1F (centres undefined)
29,inactive,CC(C)NC(C)C(O)COc1ccc(OCc2ccccc2)cc1 (centres undefined)
